From US11053281B2, “Peptoid affinity ligands” (MIKE-ANN, LLC, priority 2016, dated 2021)
Read-outs that look alike come from different tables or passages of the source. *1 amine or outer side, *2 acyl side, *3 side chain or, on linkers, in order; H or OH if unused. Where a SMILES comes first, the peptide text is derived from it. [ ]: non-standard residue; d: D form. Gly(N(CH2)2(3-indolyl)) = O=C(O)CNCCc1c[nH]c2ccccc12; Gly(N-(CH2)3-guanidino) = N=C(N)NCCCNCC(=O)O; NGly(CH2(3-pyridyl)) = O=C(O)CNCc1cccnc1; N(CH2CH2COOH)Gly = O=C(O)CCNCC(=O)O; Cysteamide = C(CS[*:3])N[*:1]; Nphe = O=C(O)CNCc1ccccc1; NPrGly = CCCNCC(=O)O; Nme = COCCNCC(=O)O; Sar = CNCC(=O)O

Test system: polyclonal human IgG
Assay: Adsorption isotherm of peptoid affinity resins against polyclonal human IgG
Format: binding
Set-up: Qmax: unit not given here
Settings: for Qmax: maximum capacity (qmax) of resin from isotherm fit; for Kd: peptoid ligand conjugated to chromatographic resin, IgG in PBS, hyperbola fit of isotherm, Kd given in molar, read-out: Kd x 10^−6
Method: The affinity for the peptoid-resin combinations was determined by measuring the adsorption isotherm of each resin against polyclonal human IgG (Pakimna et al., J Applied Sci., 12(11): 1136-1141, 2012). Briefly, 0.050 mL of 50% resin slurry was pipetted into 6 individual wells of a 96-well filter plate (0.45 micron, PVDF, Harvard Apparatus). The resin was washed with 2×250 μL PBS using a vacuum manifold. To an individual well, 0.25 mL of a human polyclonal IgG solution at different concentrations (10, 5, 2.5, 1.25, 0.625, and 0.3125 mg/mL) was added. The resin/IgG suspension was agitated gently on a rocking table for 30 minutes. The fluid was then collected via vacuum, and the resin was washed with 0.25 mL of PBS. The filtrate and wash were then analyzed by the BCA assay to determine the residual IgG concentration relative to the starting concentration of the solution.
The equilibrium concentrations were then used to determine the capacity of the resin at each IgG concentration using the following formula: q=Volumesample×(Initial Concentration−Equilibrium Concentration)/Volumeresin
A plot of q versus equilibrium concentration was generated and the data fit with a hyperbola to determine the affinity constant (Kd) and the maximum capacity (qmax) according to the below formula, where C=the equilibrium concentration of antibody in solution: q=qmax×C/(kd+C) Typical adsorption isotherm is shown in FIG. 2. Tabulated Kd and qmax data is found in Table 2.

| SMILES | Qmax (Table 3) | Kd (Table 3) [µM] | Qmax (Table 2) | Kd (Table 2) [µM] |
| --- | --- | --- | --- | --- |
| CCCN(CC(=O)N(CCc1c[nH]c2ccccc12)CC(=O)NCCS)C(=O)CN(CCc1c[nH]c2ccccc12)C(=O)CN(C)C(=O)CN(CCCNC(=N)N)C(=O)CN(CCc1c[nH]c2ccccc12)C(=O)CNCCC(=O)O [Ligand 18-28-7] (H-[N(CH2CH2COOH)Gly][Gly(N(CH2)2(3-indolyl))][Gly(N-(CH2)3-guanidino)][Sar][Gly(N(CH2)2(3-indolyl))][NPrGly][Gly(N(CH2)2(3-indolyl))]-Cysteamide) | 42 | 5.6 | – | – |
| CN(CC(=O)NCCS)C(=O)CN(CCC(=O)O)C(=O)CN(Cc1cccnc1)C(=O)CN(CCCNC(=N)N)C(=O)CN(CCC(=O)O)C(=O)CN(CCc1c[nH]c2ccccc12)C(=O)CNCc1cccnc1 [Ligand 18-28-9] (H-[NGly(CH2(3-pyridyl))][Gly(N(CH2)2(3-indolyl))][N(CH2CH2COOH)Gly][Gly(N-(CH2)3-guanidino)][NGly(CH2(3-pyridyl))][N(CH2CH2COOH)Gly][Sar]-Cysteamide) | – | – | 41 | 10 |
| COCCN(CC(=O)N(CC(=O)N(CCCNC(=N)N)CC(=O)N(CC(=O)N(CCC(=O)O)CC(=O)N(C)CC(=O)NCCS)Cc1cccnc1)Cc1ccccc1)C(=O)CNCc1cccnc1 [Ligand 18-28-12] (H-[NGly(CH2(3-pyridyl))][Nme][Nphe][Gly(N-(CH2)3-guanidino)][NGly(CH2(3-pyridyl))][N(CH2CH2COOH)Gly][Sar]-Cysteamide) | – | – | 41 | 16 |
